Laboratory results as given in patent US9579401B2, “Staining composition” (Medical Technology Transfer Holding B.V., priority 2010, dated 2017).

Assay: Stability of trypan blue and brilliant blue G in polymer solutions, 70° C. for 7 days, absorbance spectra
Conditions: 0.025% (w/v)

stability of brilliant blue G (difference absorbance spectra) (4% (w/v) PEG Mw≈3350): excellent solvent
stability of brilliant blue G (difference absorbance spectra) (PVA Mw≈13,000-23,000): much less stable
Compound: CCOc1ccc(Nc2ccc(/C(=C3C=C/C(=[N+](/CC)Cc4cccc(S(=O)(=O)[O-])c4)C=C/3C)c3ccc(N(CC)Cc4cccc(S(=O)(=O)[O-])c4)cc3C)cc2)cc1.[Na+] [brilliant blue G]
